{
  "source": "paper PMC7290441",
  "about": "(Viruses, 2020)",
  "key": {"[1]": {"test_system": "A/Puerto Rico/8/1934 (H1N1)"}, "[2]": {"test_system": "A/Seoul/11/1988 (H3N2)"}, "[3]": {"test_system": "A/Puerto Rico/8/1934 (H1N1)", "test": "microbe, parasite or virus in culture", "details": "Influenza A virus, H1N1, MDCK, 72 h, read-out: EC50 against A/Puerto Rico/8/1934 (H1N1)"}, "[4]": {"test_system": "A/California/7/2009 (H1N1)", "test": "microbe, parasite or virus in culture", "details": "Influenza A virus, H1N1, MDCK, 72 h, read-out: EC50 against A/California/7/2009 (H1N1)"}, "[5]": {"test_system": "B/Lee/40"}, "[6]": {"test": "Cytotoxicity to mock-infected MDCK cells (MTT)", "details": "dog"}, "[7]": {"test_system": "A/Brisbane/59/2007 (H1N1)", "test": "microbe, parasite or virus in culture", "details": "Influenza A virus, H1N1, MDCK, 72 h, read-out: EC50 against A/Brisbane/59/2007 (H1N1)"}, "[8]": {"test_system": "A/Seoul/11/1988 (H3N2)", "test": "microbe, parasite or virus in culture", "details": "Influenza A virus, H3N2, MDCK, 72 h, read-out: EC50 against A/Seoul/11/1988 (H3N2)"}, "[9]": {"test_system": "A/Victoria/361/2011-like (H3N2)", "test": "microbe, parasite or virus in culture", "details": "Influenza A virus, H3N2, MDCK, 72 h, read-out: EC50 against A/Victoria/361/2011-like (H3N2)"}, "[10]": {"test_system": "A/Brisbane/59/2007 (H1N1)"}, "[11]": {"test_system": "A/Hong Kong/8/1968 (H3N2)"}, "[12]": {"test_system": "B/Brisbane/60/2008", "test": "microbe, parasite or virus in culture", "details": "Influenza B virus, MDCK, 72 h, read-out: EC50 against B/Brisbane/60/2008"}, "[13]": {"test_system": "PR8 virus (viral proteins NP, HA, M1)", "type": "cell-based, influenza A virus"}, "[14]": {"test_system": "A/Brisbane/10/2007 (H3N2)"}, "[15]": {"test_system": "A/California/7/2009 (H1N1)"}, "[16]": {"test_system": "B/Brisbane/60/2008"}, "[17]": {"test_system": "A/Perth/16/2009 (H3N2)"}, "[18]": {"test_system": "A/Perth/16/2009 (H3N2)", "test": "microbe, parasite or virus in culture", "details": "Influenza A virus, H3N2, MDCK, 72 h, read-out: EC50 against A/Perth/16/2009 (H3N2)"}, "[19]": {"test_system": "B/Lee/40", "test": "microbe, parasite or virus in culture", "details": "Influenza B virus, MDCK, 72 h, read-out: EC50 against B/Lee/40"}, "[20]": {"test_system": "A/Hong Kong/8/1968 (H3N2)", "test": "microbe, parasite or virus in culture", "details": "Influenza A virus, H3N2, MDCK, 72 h, read-out: EC50 against A/Hong Kong/8/1968 (H3N2)"}, "[21]": {"test_system": "A/Victoria/361/2011-like (H3N2)"}, "[22]": {"test_system": "A/Brisbane/10/2007 (H3N2)", "test": "microbe, parasite or virus in culture", "details": "Influenza A virus, H3N2, MDCK, 72 h, read-out: EC50 against A/Brisbane/10/2007 (H3N2)"}, "[23]": {"test": "in vitro", "details": "dog"}},
  "note": "Where two headings read alike, the source gives them in different places.",
  "data": [
    {"smiles": "NC(=O)c1ncn([C@@H]2O[C@H](CO)[C@@H](O)[C@H]2O)n1", "note": "[RBV, ribavirin]", "values": [
      {"measurement": "S.I. (CC50/EC50), A/Puerto Rico/8/1934 (H1N1)", "setting": "[1]", "value": "(>48.9)"},
      {"measurement": "S.I. (CC50/EC50), A/Seoul/11/1988 (H3N2)", "setting": "[2]", "value": "(>52.3)"},
      {"measurement": "EC50", "setting": "[3]", "value": "18.4 ± 3.4", "unit": "µM"},
      {"measurement": "EC50", "setting": "[4]", "value": "52.5 ± 1.5", "unit": "µM"},
      {"measurement": "S.I. (CC50/EC50), B/Lee/40", "setting": "[5]", "value": "(>65.5)"},
      {"measurement": "CC50 at 3 days", "setting": "[6]", "value": "> 900", "unit": "µM"},
      {"measurement": "EC50", "setting": "[7]", "value": "24.1 ± 0.5", "unit": "µM"},
      {"measurement": "EC50", "setting": "[8]", "value": "10.5 ± 4.2", "unit": "µM"},
      {"measurement": "EC50", "setting": "[9]", "value": "33.4 ± 8.8", "unit": "µM"},
      {"measurement": "S.I. (CC50/EC50), A/Brisbane/59/2007 (H1N1)", "setting": "[10]", "value": "(>37.3)"},
      {"measurement": "S.I. (CC50/EC50), A/Hong Kong/8/1968 (H3N2)", "setting": "[11]", "value": "(>57.5)"},
      {"measurement": "EC50", "setting": "[12]", "value": "25.6 ± 0.3", "unit": "µM"},
      {"measurement": "viral proteins NP, HA and M1 (western blot)", "setting": "[13]", "value": "not detected"},
      {"measurement": "S.I. (CC50/EC50), A/Brisbane/10/2007 (H3N2)", "setting": "[14]", "value": "(>71.4)"},
      {"measurement": "S.I. (CC50/EC50), A/California/7/2009 (H1N1)", "setting": "[15]", "value": "(>17.2)"},
      {"measurement": "S.I. (CC50/EC50), B/Brisbane/60/2008", "setting": "[16]", "value": "(>35.2)"},
      {"measurement": "S.I. (CC50/EC50), A/Perth/16/2009 (H3N2)", "setting": "[17]", "value": "(>26.6)"},
      {"measurement": "EC50", "setting": "[18]", "value": "33.8 ± 11.6", "unit": "µM"},
      {"measurement": "EC50", "setting": "[19]", "value": "13.8 ± 0.2", "unit": "µM"},
      {"measurement": "EC50", "setting": "[20]", "value": "15.7 ± 2.7", "unit": "µM"},
      {"measurement": "S.I. (CC50/EC50), A/Victoria/361/2011-like (H3N2)", "setting": "[21]", "value": "(>16.4)"},
      {"measurement": "EC50", "setting": "[22]", "value": "12.6 ± 6.4", "unit": "µM"}
    ]},
    {"smiles": "OC(CN1CCC(Cc2ccc(F)cc2)CC1)c1ccc(Cl)cc1", "note": "(centres unmarked) [Eliprodil, eliprodil]", "values": [
      {"measurement": "EC50", "setting": "[3]", "value": "> 100", "unit": "µM"},
      {"measurement": "EC50", "setting": "[4]", "value": "> 100", "unit": "µM"},
      {"measurement": "CC50 at 3 days", "setting": "[6]", "value": "> 900", "unit": "µM"},
      {"measurement": "EC50", "setting": "[7]", "value": "53.1 ± 0.3", "unit": "µM"},
      {"measurement": "EC50", "setting": "[8]", "value": "> 100", "unit": "µM"},
      {"measurement": "EC50", "setting": "[9]", "value": "> 100", "unit": "µM"},
      {"measurement": "S.I. (CC50/EC50), A/Brisbane/59/2007 (H1N1)", "setting": "[10]; MDCK cells", "value": "(>16.9)"},
      {"measurement": "S.I. (CC50/EC50), A/Hong Kong/8/1968 (H3N2)", "setting": "[11]", "value": "(>15.5)"},
      {"measurement": "EC50", "setting": "[11]; read-out: EC50 against A/Hong Kong/8/1968 (H3N2)", "value": "58.1 ± 6.4", "unit": "µM"},
      {"measurement": "EC50", "setting": "[12]", "value": "> 100", "unit": "µM"},
      {"measurement": "EC50", "setting": "[18]", "value": "> 100", "unit": "µM"},
      {"measurement": "EC50", "setting": "[19]", "value": "> 100", "unit": "µM"},
      {"measurement": "EC50", "setting": "[20]", "value": "> 44", "unit": "µM"},
      {"measurement": "EC50", "setting": "[22]", "value": "> 100", "unit": "µM"}
    ]},
    {"smiles": "CN(C)C(=O)Oc1cc(OC(=O)N(C)C)cc(C(O)CNC(C)(C)C)c1", "note": "(centres unmarked) [Bambuterol, bambuterol]", "values": [
      {"measurement": "EC50", "setting": "[3]", "value": "> 100", "unit": "µM"},
      {"measurement": "CC50 at 3 days", "setting": "[6]", "value": "> 900", "unit": "µM"},
      {"measurement": "EC50", "setting": "[19]", "value": "> 100", "unit": "µM"},
      {"measurement": "EC50", "setting": "[20]", "value": "> 100", "unit": "µM"}
    ]},
    {"smiles": "CC(Cc1ccc(O)cc1)NCC(O)c1cc(O)cc(O)c1", "note": "(centres unmarked) [Fenoterol, fenoterol]", "values": [
      {"measurement": "EC50", "setting": "[3]", "value": "> 100", "unit": "µM"},
      {"measurement": "EC50", "setting": "[19]", "value": "> 100", "unit": "µM"},
      {"measurement": "CC50", "setting": "[23]", "value": "> 900", "unit": "µM"},
      {"measurement": "EC50", "setting": "[20]", "value": "> 100", "unit": "µM"}
    ]},
    {"smiles": "CC(CCc1ccccc1)NCC(O)c1ccc(O)c(C(N)=O)c1", "note": "(centres unmarked) [Labetalol, labetalol]", "values": [
      {"measurement": "EC50", "setting": "[3]", "value": "> 100", "unit": "µM"},
      {"measurement": "EC50", "setting": "[4]", "value": "> 100", "unit": "µM"},
      {"measurement": "CC50 at 3 days", "setting": "[6]", "value": "498.1 ± 0.5", "unit": "µM"},
      {"measurement": "EC50", "setting": "[7]", "value": "> 100", "unit": "µM"},
      {"measurement": "EC50", "setting": "[8]", "value": "> 100", "unit": "µM"},
      {"measurement": "EC50", "setting": "[9]", "value": "> 100", "unit": "µM"},
      {"measurement": "S.I. (CC50/EC50), A/Hong Kong/8/1968 (H3N2)", "setting": "[11]", "value": "(>11.3)"},
      {"measurement": "EC50", "setting": "[12]", "value": "> 100", "unit": "µM"},
      {"measurement": "EC50", "setting": "[18]", "value": "> 100", "unit": "µM"},
      {"measurement": "EC50", "setting": "[19]", "value": "> 100", "unit": "µM"},
      {"measurement": "EC50", "setting": "[20]", "value": "44 ± 9.7", "unit": "µM"},
      {"measurement": "EC50", "setting": "[22]", "value": "> 100", "unit": "µM"}
    ]}
  ]
}
